The source made the active and inactive calls. The calls are words filed in the database; no cut-off is given here.
Key:
[1] = system: Plasmodium falciparum; assay: Antimalarial activity against Plasmodium falciparum 3D7 assessed as reduction in parasite growth incubated for 48 hrs; format: functional, organism-based; conditions: 3D7, 48 h
[2] = Stability in methanolic diethylamine at 40 degC measured after 2 days 1H-NMR analysis; format: physicochemical; conditions: 48 h; time 2 day
[3] = Stability in D2O at 50 degC measured after 7 days HRMS analysis; format: physicochemical; conditions: 168 h; time 7 day
[4] = Solubility of compound in CDCl3; format: physicochemical
[5] = Drug metabolism in 0.1 M DCl in D20 assessed as ethyl 2-benzamido-4-deuterio-6-(dimethylaminomethyl)-7-hydroxy-benzothiophene-3-carboxylate formation at 90 degC after 24 hrs
[6] = Solubility of compound in D2O; format: physicochemical
[7] = Stability in D2O at 90 degC measured after 1 day HRMS analysis; format: physicochemical; conditions: 24 h
[8] = Stability in methanolic diethylamine at 40 degC measured after 2 days HRMS analysis; format: physicochemical; conditions: 48 h; time 2 day
[9] = system: Plasmodium berghei; assay: Antimalarial activity against blood-stage Plasmodium berghei infected in mouse assessed as reduction in parasite growth at 40 mg/kg, po; format: functional, organism-based
[10] = Stability in mouse plasma assessed as carboxylesterase-mediated reduction in parent compound incubated for over 120 mins; format: ADME, cell-free; conditions: 2 h
[11] = Stability in mouse hepatocytes assessed as half life; format: ADME, cell-based, Hepatocyte

| Structure (SMILES) | EC50 [1] [nM] | further results |
| --- | --- | --- |
| CCOC(=O)c1c(NC(=O)c2ccccc2)sc2c(O)c(CNC34CC5CC(CC(C5)C3)C4)ccc12 | 388 | – |
| CCOC(=O)c1c(NC(=O)c2ccccc2)sc2c(O)c(CN(C)C)ccc12.Cl | 24 | Stabilty [2]: Stable; Stabilty [3]: Stable; solubility [4]: Insoluble; Drug metabolism [5]: Metabolite detected; solubility [6]: Insoluble; Stabilty [7]: Unstable; Stabilty [8]: Stable |
| CCOC(=O)c1c(NC(=O)c2ccccc2)sc2c(OC)c(CN(CC)CC)ccc12 | > 1000 | – |
| CCOC(=O)c1c(NC(=O)c2ccc(Cl)cc2)sc2c(O)c(CN(CC)CC)ccc12 | 70 | – |
| CCN(CC)Cc1ccc2c(C(=O)NC)c(NC(=O)c3ccccc3)sc2c1O | > 1000 | – |
| CCOC(=O)c1c(NC(=O)c2ccccc2)sc2c(O)c(CN3CCCC3)ccc12 | 16 | – |
| CCN(CC)Cc1ccc2c(C(=O)OC)c(NC(=O)c3ccccc3)sc2c1O | 53 | – |
| CCOC(=O)c1c(NC(=O)c2ccccc2)sc2c(O)c(CN3CCCCC3)ccc12 | 13 | – |
| CCOC(=O)c1c(NC(=O)c2ccccc2)sc2c(O)c(CCN(C)C)ccc12 | 182 | – |
| CCOC(=O)c1c(NC(=O)c2ccc(OC)cc2)sc2c(O)c(CN(CC)CC)ccc12 | 66 | – |
| CCOC(=O)c1c(NC(=O)c2ccccc2)sc2c(O)c(CN(CC)CC)ccc12 | 27 | Activity [9]: inactive; Stabilty [10]: Stable; t1/2 [11]: 11 min |
| CCOC(=O)c1c(NC(=O)c2ccccc2)sc2c(O)c(CN3CCOCC3)ccc12 | 100 | – |
| CCCN(CCC)Cc1ccc2c(C(=O)OCC)c(NC(=O)c3ccccc3)sc2c1O | 16 | – |
| O[C@@H](c1cc(C(F)(F)F)nc2c(C(F)(F)F)cccc12)[C@H]1CCCCN1 [(S,R)-MEFLOQUINE] | 16 | – |

From ChEMBL document CHEMBL4725324, “In vitro and in vivo evaluation of the antimalarial MMV665831 and structural analogs” (Bioorg Med Chem Lett, 2020)
